According to ChEMBL document CHEMBL1153899, “Discovery of benzothiazole derivatives as efficacious and enterocyte-specific MTP inhibitors” (Bioorg Med Chem Lett, 2009):
Activity calls are given as the source filed them. The calls are words filed in the database; no cut-off is given here.

Columns and labels:
HepG2 = assay: Inhibition of apoB secretion in human HepG2 cells after 40 hrs by ELISA; format: functional, cell-based; conditions: HepG2, 40 h
[1] = Inhibition of MTP from dog liver microsomes by scintillation counting; set-up: species or system Canis lupus familiaris, Microsome
Mus musculus [2] = assay: Increase in peptide YY level in 3-day high fat diet fed C57BL/6 mouse at 10 mg/kg, po daily for 3 days; format: functional, organism-based; set-up: dose 10 mg/kg
Mus musculus [3] = assay: Decrease in plasma triglyceride level in […] C57BL/6 mouse at 10 mg/kg, po daily for 3 days measured after 6 hrs; format: functional
Mus musculus [4] = assay: Decrease in total food intake in 3-day high fat diet fed C57BL/6 mouse at 10 mg/kg, po daily for 3 days; format: functional
Mus musculus [5] = assay: Decrease in body weight in […] at 10 mg/kg, po daily for 3 days; format: functional, C57BL/6

SMILES | IC50 (HepG2) [nM] | IC50 [1] [nM] | Activity (Mus musculus [2]) | Activity (Mus musculus [3]) | Activity (Mus musculus [4]) | Activity (Mus musculus [5])
CCCCN(C)C(=O)[C@@H](NC(=O)c1nc2ccc(NC(=O)c3ccccc3-c3ccc(C(C)(C)C)cc3)cc2s1)c1ccccc1 | 6.5 | 9.5 | – | – | – | –
CN(Cc1ccc(F)cc1)C(=O)[C@@H](NC(=O)c1nc2ccc(NC(=O)c3ccccc3-c3ccc(C(F)(F)F)cc3)cc2s1)c1ccccc1 | 17.3 | – | – | – | – | –
Cc1cccc(C(=O)Nc2ccc3nc(C(=O)N[C@H](C(=O)N(C)Cc4ccc(F)cc4)c4ccccc4)sc3c2)c1-c1ccc(C(C)(C)C)cc1 | 2.9 | 4.7 | Active | Active | Active | Active
